# Results taken from ChEMBL document CHEMBL1150489, “Increase of the anti-HIV activity of D4T in human T-cell culture by the use of the sate pronucleotide approach” (Bioorg Med Chem Lett, 1995).
# Key:
# [1] = test system: CEM-SS; assay: (§1) Tested in vitro for the antiviral activity in CEM-SS cells infected with HIV-1; assay type: functional; settings: Homo sapiens
# [2] = test system: MT4; assay: (§2) Tested in vitro for the antiviral activity in MT-4 cells infected with HIV-1; assay type: functional, cell-based; settings: Homo sapiens
# [3] = test system: CEM-SS; assay: as §1; assay type: functional, cell-based; settings: Homo sapiens
# [4] = test system: CEM-TK(-); assay: (§3) Tested in vitro for the antiviral activity in CEM/TK- cells infected with HIV-1; assay type: functional, Homo sapiens
# [5] = test system: MT4; assay: as §2; assay type: functional, Homo sapiens
# [6] = (§4) Tested in vitro for the antiviral activity in PBM cells infected with HIV-1; assay type: functional, cell-based; settings: Homo sapiens, PBMC
# [7] = test system: CEM-TK(-); assay: as §3; assay type: functional; settings: Homo sapiens
# [8] = test system: CEM-TK(-); assay: as §3; assay type: functional, cell-based; settings: Homo sapiens
# [9] = as §4; assay type: functional; settings: Homo sapiens, PBMC
# [10] = test system: MT4; assay: as §2; assay type: functional; settings: Homo sapiens
# [11] = test system: CEM-SS; assay: as §1; assay type: functional, Homo sapiens
EC50 [3],EC50 [6],EC50 [8],Compound,CC50 [1],EC50 [2],Reduction [4],Reduction [5],CC50 [7],CC50 [9],CC50 [10],Reduction [11]
0.059 µM,0.05 µM,10 µM,Cc1cn([C@H]2C=C[C@@H](CO)O2)c(=O)[nH]c1=O [STAVUDINE],> 100 µM,0.28 µM,6%,10%,> 100 µM,42 µM,> 100 µM,21%
0.006 µM,0.007 µM,0.012 µM,CC(=O)SCCOP(=O)(OCCSC(C)=O)OCC1C=CC(n2cc(C)c(=O)[nH]c2=O)O1 (stereo not given),68 µM,0.016 µM,–,19%,60 µM,22 µM,> 100 µM,–
